Experimental data as given in publication PMC9501280, “Anti-Inflammatory Activity of Soluble Epoxide Hydrolase Inhibitors Based on Selenoureas Bearing an Adamantane Moiety” (International Journal of Molecular Sciences, 2022).

Tests used:
[1] = system: B. subtilis 168 pNK-AlkA; experiment: Lux-biosensor, DNA alkylation (PalkA); type: cell-based, Bacillus subtilis; conditions: compounds 1 μM to 1 mM; Standard = methyl methanesulfonate 1 mM
Experimental: The study was carried out with use of the following whole-cell bacterial biosensors: Escherichia coli MG1655 pOxyR-lux, E. coli MG1655 pDps, E. coli MG1655 pSoxS-lux, E. coli MG1655 pColD-lux, E. coli MG1655 pAlkA-lux, E. coli MG1655 pXen7, Bacillus subtilis 168 pNK-AlkA, B. subtilis 168 pNK-MrgA and B. subtilis 168 pNK-DinC. These biosensors by the quantitation of bacterial stress promoters’ activity, make it possible to determine oxidative stress caused by hydrogen peroxide and the superoxide anion radical, SOS response, DNA alkylation, or general toxicity in Gram-positive and Gram-negative B. subtilis and E. coli cells. We used concentrations from 1 μM to 1 mM of the studied compounds added to the suspension of biosensor cells. […]
The bioluminescence of cells was measured using a Synergy HT luminometer (Biotek, Winooski, VT, USA) at room temperature. Lux biosensors based on E. coli were grown to an early logarithmic phase (OD ≈ 0.1) to achieve a background luminescence approximately 100–1000 RLU at the beginning of the measurements. Lux biosensors based on B. subtilis were grown to a logarithmic phase with an optical density OD ≈ 0.6 (and background luminescence of about 10–500 RLU). […] The kinetics of change in luminescence was measured at room temperature. […]

[2] = system: human neuroblastoma cells (SH-SY5Y); experiment: MTT test on neuroblastoma cells; type: cell-based; conditions: 72 h, read-out: EC50 ± SEM, SH-SY5Y
Experimental: For compounds with evident anti-inflammatory activity (4a and 5b) and one outgroup compound (4g), MTT tests with the human fibroblast cells (MRC-5) and human neuroblastoma cells (SH-SY5Y) were carried out. The studied compounds were added in concentrations of 1, 3, 6, 12, 25, 50, and 100 μM.
The MTT test to determine the effect of cell viability was performed on the SH-SY5Y neuroblastoma cell line in a 96-well plate.
Cells grown to 80% confluence were trypsinized and plated at a density of 5000 cells per well (100 µL total well volume) and incubated overnight in a CO2 incubator. The next day, a 50 mM stock of studied compounds in DMSO was diluted in DMEM and added in the amount of 50 μL per well to obtain final concentrations of 1–100 μM. […] After that, the supernatant was discarded, 100 μL of DMSO was added and, after the dissolution of the formazan crystals, the absorbance at 570 nm was measured on a Synergy HT plate reader (Biotek, Winooski, VT, USA). […]
All experiments with SH-SY5Y, E. coli and B. subtilis cell cultures were performed in 3 independent repetitions. The error in the luminescence measurements was calculated using the standard deviation equation based on 3 repeats, its values on the graphs are shown with error bars. EC50 concentrations were determined using Combenefit software.

[3] = system: E. coli MG1655 and B. subtilis 168 biosensor cells; experiment: Whole-cell bacterial lux-biosensors, whole panel (statements in words); type: cell-based, Escherichia coli, Bacillus subtilis; conditions: concentrations from 1 μM to 1 mM
Experimental: (§1) The study was carried out with use of the following whole-cell bacterial biosensors: Escherichia coli MG1655 pOxyR-lux, E. coli MG1655 pDps, E. coli MG1655 pSoxS-lux, E. coli MG1655 pColD-lux, E. coli MG1655 pAlkA-lux, E. coli MG1655 pXen7, Bacillus subtilis 168 pNK-AlkA, B. subtilis 168 pNK-MrgA and B. subtilis 168 pNK-DinC. These biosensors by the quantitation of bacterial stress promoters’ activity, make it possible to determine oxidative stress caused by hydrogen peroxide and the superoxide anion radical, SOS response, DNA alkylation, or general toxicity in Gram-positive and Gram-negative B. subtilis and E. coli cells. We used concentrations from 1 μM to 1 mM of the studied compounds added to the suspension of biosensor cells.
In this work, biosensor strains based on E. coli MG1655 cells and B. subtilis 168 cells were used.
The bioluminescence of cells was measured using a Synergy HT luminometer (Biotek, Winooski, VT, USA) at room temperature. Lux biosensors based on E. coli were grown to an early logarithmic phase (OD ≈ 0.1) to achieve a background luminescence approximately 100–1000 RLU at the beginning of the measurements. Lux biosensors based on B. subtilis were grown to a logarithmic phase with an optical density OD ≈ 0.6 (and background luminescence of about 10–500 RLU). […] The kinetics of change in luminescence was measured at room temperature.

[4] = system: E. coli MG1655 pDps; type: cell-based, Escherichia coli; conditions: compounds 1 μM to 1 mM; Standard = hydrogen peroxide 100 μM
Experimental: as §1
(§2) pColD-lux―PcolD is induced by the SOS response; pDps―Pdps is activated in the presence of DNA-oxidizing agents; pSoxS-lux―PSoxS is induced in the presence of superoxide anion radicals; pOxyR-lux―PoxyR is induced in response to the appearance of hydrogen peroxide or organic peroxides; pAlkA-lux―PalkA is induced in response to DNA alkylation. pXen7 contains P. luminescens ZM1 lux genes controlled by its own promoter, which was used as a constitutive.
(§3) The bioluminescence of cells was measured using a Synergy HT luminometer (Biotek, Winooski, VT, USA) at room temperature. Lux biosensors based on E. coli were grown to an early logarithmic phase (OD ≈ 0.1) to achieve a background luminescence approximately 100–1000 RLU at the beginning of the measurements. Lux biosensors based on B. subtilis were grown to a logarithmic phase with an optical density OD ≈ 0.6 (and background luminescence of about 10–500 RLU). Biosensor cell cultures were divided into portions of 200 μL in a 96-well plate. Control toxicants and studied compounds were added to the cell suspension at 2 µL per well. Mitomycin C (at final concentration of 30 μM) for biosensors induced by the SOS response (PcolD and PdinC); methyl methanesulfonate (1 mM) for biosensors induced by DNA alkylation (PalkA); hydrogen peroxide (100 μM) for biosensors induced by presence of peroxides (PoxyR, Pdps and PmrgA) and methyl viologen (100 μM) for PsoxS activation by the presence of superoxide anion radicals. The kinetics of change in luminescence was measured at room temperature.
(§4) To unify the obtained results and eliminate the differences between the experiments due to different initial luminescence values, the luminescence value in each sample was normalized to the initial value according to Equation (1): (1) Lnorm(t, x)=L(t, x)/L(0, x) where Lnorm(t,x)—luminescence normalized to the initial value for the sample x, L(t,x) is the luminescence of sample x at time t and L(0,x) is the initial luminescence of sample x (immediately after addition of the studied compound or control toxicant). This normalization considers the optical density of the studied compound and the luminescence shielding caused by it, which appears immediately after the addition and facilitates the analysis of a slower effect associated with the general toxicity and activation of stress-inducible promoters for which the typical time of activation is in a range from several minutes to 3 h.
(§5) To determine the luminescence induction coefficient of biosensor cells, observed due to changes in the level of reporter genes transcription, the following equation was used:(2) Kind(t, x)=Lnorm(t, x)/Lnorm(t, contr) where Kind(t) is the calculated luminescence induction coefficient of biosensor cells in sample x at time point t, and Lnorm(t,contr) is the normalized luminescence in the control sample of the same biosensor cells without the addition of the studied compounds.

[5] = system: E. coli MG1655 pOxyR-lux; type: cell-based, Escherichia coli; conditions: compounds 1 μM to 1 mM; Standard = hydrogen peroxide 100 μM
Experimental: as §1, §2, §3, §4, §5

[6] = system: E. coli MG1655 pAlkA-lux; type: cell-based, Escherichia coli; conditions: compounds 1 μM to 1 mM; Standard = methyl methanesulfonate 1 mM
Experimental: as §1, §2, §3, §4, §5

[7] = system: E. coli MG1655 pColD-lux; type: cell-based, Escherichia coli; conditions: compounds 1 μM to 1 mM; Standard = Mitomycin C 30 μM
Experimental: as §1, §2, §3, §4, §5

Row | Structure (SMILES) | max(Kind), B. subtilis 168 pNK-AlkA [1] | EC50 [2] | activation of stress promoters (in words) [3] | max(Kind), E. coli MG1655 pDps [4] | max(Kind), E. coli MG1655 pOxyR-lux [5] | max(Kind), E. coli MG1655 pAlkA-lux [6] | max(Kind), E. coli MG1655 pColD-lux [7]
1 | [Se]=C(Nc1ccccc1)NC12CC3CC(CC(C3)C1)C2 [4a, 1-(Adamantan-1-yl)-3-phenylselenourea] | 0.8 ± 0.4 | 16.5 ± 1.5 µM | causes only the activation of stress promoter PoxyR | 1.15 ± 0.25 | 2.62 ± 0.7 | 1.15 ± 0.33 | 1.5 ± 0.6
2 | [Se]=C(Nc1ccccc1)NC1C2CC3CC(C2)CC1C3 (centres unmarked) [4g, 1-(Adamantan-2-yl)-3-phenylselenourea] | 0.7 ± 0.4 | 8.6 ± 0.9 µM | does not cause an increase in the luminescence | 1.2 ± 0.4 | 1.12 ± 0.16 | 1.05 ± 0.30 | 1.26 ± 0.31
